In patent publication US20230062100A1, “SUBSTITUTED AMINOQUINOLONES AS DGKALPHA INHIBITORS FOR IMMUNE ACTIVATION” (Bayer Aktiengesellschaft, priority 2019, published 2023):

These compounds were tested against DGKα (Homo sapiens, UniProt P23743) (assay: Human DGKα kinase activity inhibition assay (ADP-Glo)). Conditions: in vitro human DGKα kinase activity inhibition assay.
Assay type: biochemical
Method: Human DGKα inhibitory activity of compounds of the present invention was quantified employing the human DGKα kinase activity assay as described in the following paragraphs. In essence, the enzyme activity was measured by quantification of the adenosine-di-phosphate (ADP) generated as a co-product of the enzyme reaction via the “ADP-Glo™ Kinase Assay” kit from the company Promega. This detection system works as follows: In a first step the ATP not consumed in the kinase reaction is quantitatively converted to cAMP employing an adenylate cyclase (“ADP-Glo-reagent”), then the adenylate cyclase is stopped and the ADP generated in the kinase reaction converted to ATP, which subsequently generates in a luciferase-based reaction a glow-luminescence signal (“Kinase Detection Reagent”). C-terminally FLAG-tagged, recombinant full-length human DGKα (expressed in baculovirus infected insect cells, purified using anti-Flag pulldown and size exclusion chromatography as described below, DGKα_hu_1) was used as enzyme. As substrate for the kinase 1,2-dioleoyl-sn-glycerol, reconstituted in octyl-β-D-glucopyranoside micelles, was used. For the preparation of the micelles, 1 volume of a 16.1 mM solution of 1,2-dioleoyl-sn-glycerol (Avanti, Cat. #O8001-25G) in chloroform was slowly evaporated using a nitrogen stream. Subsequently, 22.55 volumes of a 510 mM solution of octyl-β-D-glucopyranoside (Sigma-Aldrich, Cat. #O8001-10G) in 50 mM MOPS buffer (pH 7.4) were added, and the mixture was sonicated in an ultrasonic bath for 20 s. Then 35 volumes of 50 mM MOPS buffer (pH 7.4) were added to yield a solution of 0.28 mM 1,2 dioleoyl-sn-glycerol and 200 mM octyl-β-D-glucopyranoside, which was aliquoted, flash-frozen in liquid nitrogen, and stored at −20° C. until use. For each experiment, a fresh aliquot was quickly thawed and diluted 24-fold with aqueous assay buffer (described below) containing 95.7 μM adenosine triphosphate (Promega) to yield a 1.67-fold concentrated substrate solution. For the assay 50 nl of a 100-fold concentrated solution of the test compound in dimethyl sulfoxide (DMSO, Sigma) was pipetted into either a white 1536-well or a white low-volume 384-well microtiter plate (both Greiner Bio-One, Frickenhausen, Germany). […] The concentration of DGK a was adjusted depending of the activity of the enzyme lot and was chosen appropriate to have the assay in the linear range, a typical concentration is about 0.1 nM. The reaction was stopped by the addition of 2.5 μl of “ADP-Glo-reagent” (1 to 1.5 diluted with water) and the resulting mixture was incubated at 22° C. for 1 h to convert the ATP not consumed in the kinase reaction completely to cAMP. […] The amount of emitted light was taken as a measure for the amount of ADP generated and thereby for the activity of the DGKα.

Chain of DGKα (P23743 with tags, fused parts or gaps): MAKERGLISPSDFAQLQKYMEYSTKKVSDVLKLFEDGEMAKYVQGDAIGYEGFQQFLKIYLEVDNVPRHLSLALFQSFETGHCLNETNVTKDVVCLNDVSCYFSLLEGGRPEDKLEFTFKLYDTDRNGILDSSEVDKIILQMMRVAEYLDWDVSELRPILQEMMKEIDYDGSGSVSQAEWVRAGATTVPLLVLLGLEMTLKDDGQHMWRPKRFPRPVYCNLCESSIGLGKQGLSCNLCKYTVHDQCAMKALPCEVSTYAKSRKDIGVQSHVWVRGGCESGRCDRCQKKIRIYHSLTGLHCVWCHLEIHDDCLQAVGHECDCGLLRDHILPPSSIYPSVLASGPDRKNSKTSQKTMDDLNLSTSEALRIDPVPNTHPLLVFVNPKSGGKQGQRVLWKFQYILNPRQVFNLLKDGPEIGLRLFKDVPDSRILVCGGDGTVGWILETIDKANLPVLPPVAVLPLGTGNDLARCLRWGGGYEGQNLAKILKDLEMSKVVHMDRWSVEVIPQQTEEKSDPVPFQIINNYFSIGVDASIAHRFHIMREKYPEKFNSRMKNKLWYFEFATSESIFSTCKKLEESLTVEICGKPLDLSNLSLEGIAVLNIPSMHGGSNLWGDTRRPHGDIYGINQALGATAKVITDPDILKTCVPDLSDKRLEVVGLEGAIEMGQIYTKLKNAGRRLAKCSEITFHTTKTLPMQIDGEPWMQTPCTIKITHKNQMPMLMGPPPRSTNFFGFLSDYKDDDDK

SMILES | IC50
COc1ccccc1CC1CCN(c2c(C#N)c(=O)n(C)c3ccccc23)CC1 [Example 94, 4-{4-[(2-methoxyphenyl)methyl]piperidin-1-yl}-1-methyl-2-oxo-1,2-dihydroquinoline-3-carbonitrile] | 28 nM
Cn1c(=O)c(C#N)c(N2CCC(C)(Oc3ccc(Br)cc3)CC2)c2ccccc21 [Example 42, 4-[4-(4-bromophenoxy)-4-methylpiperidin-1-yl]-1-methyl-2-oxo-1,2-dihydroquinoline-3-carbonitrile] | 27 nM
Cn1c(=O)c(C#N)c(N2CCC(Sc3ccccc3)CC2)c2cc(Br)ccc21 [Example 140, 6-bromo-1-methyl-2-oxo-4-[4-(phenylsulfanyl)piperidin-1-yl]-1,2-dihydroquinoline-3-carbonitrile] | 1.4 nM
Cn1c(=O)c(C#N)c(N2CCC(Oc3ccc(OC(F)(F)F)cc3)CC2)c2cccc(N3CCCC3=O)c21 [Example 133, 1-methyl-2-oxo-8-(2-oxopyrrolidin-1-yl)-4-{4-[4-(trifluoromethoxy)phenoxy]piperidin-1-yl}-1,2-dihydroquinoline-3-carbonitrile] | 55 nM
Cn1c(=O)c(C#N)c(N2CCC(Oc3cccc(OC(F)(F)F)c3)CC2)c2ccc(Br)cc21 [Example 61, 7-bromo-1-methyl-2-oxo-4-{4-[3-(trifluoromethoxy)phenoxy]piperidin-1-yl}-1,2-dihydroquinoline-3-carbonitrile] | 22 nM
Cc1ccc2c(c1)c(N1CCC(Oc3ccc(OC(F)(F)F)cc3)CC1)c(C(N)=O)c(=O)n2C [Example 160, 1,6-dimethyl-2-oxo-4-{4-[4-(trifluoromethoxy)phenoxy]piperidin-1-yl}-1,2-dihydroquinoline-3-carboxamide] | 3.1 nM
Cc1ccc2c(c1)c(N1CCC(Sc3ccccc3)CC1)c(C#N)c(=O)n2C [Example 142, 1,6-dimethyl-2-oxo-4-[4-(phenylsulfanyl)piperidin-1-yl]-1,2-dihydroquinoline-3-carbonitrile] | 2 nM
Cn1c(=O)c(C#N)c(N2CCC(Oc3ccc(OC(F)(F)F)cc3)CC2)c2cccc(Br)c21 [Example 130, 8-bromo-1-methyl-2-oxo-4-{4-[4-(trifluoromethoxy)phenoxy]piperidin-1-yl}-1,2-dihydroquinoline-3-carbonitrile] | 202 nM
COc1cccc(OC2CCN(c3c(C(N)=O)c(=O)n(C)c4ccc(C)cc34)CC2)c1 [Example 159, 4-[4-(3-methoxyphenoxy)piperidin-1-yl]-1,6-dimethyl-2-oxo-1,2-dihydroquinoline-3-carboxamide] | 12 nM
COc1cccc(OC2CCN(c3c(C#N)c(=O)n(C)c4ccc(Br)cc34)CC2)c1 [Example 138, 6-bromo-4-[4-(3-methoxyphenoxy)piperidin-1-yl]-1-methyl-2-oxo-1,2-dihydroquinoline-3-carbonitrile] | 1.5 nM
Cn1c(=O)c(C#N)c(N2CCC(Oc3ccccc3C#N)CC2)c2ccccc21 [Example 34, 4-[4-(2-cyanophenoxy)piperidin-1-yl]-1-methyl-2-oxo-1,2-dihydroquinoline-3-carbonitrile] | 9 nM
Cn1c(=O)c(C#N)c(N2CCC(C)(Oc3ccc(N)cc3)CC2)c2ccccc21 [Example 41, 4-[4-(4-aminophenoxy)-4-methylpiperidin-1-yl]-1-methyl-2-oxo-1,2-dihydroquinoline-3-carbonitrile] | 173 nM
Cn1c(=O)c(C#N)c(N2CCC(Sc3ccccc3)CC2)c2ccc(Br)cc21 [Example 55, 7-bromo-1-methyl-2-oxo-4-[4-(phenylsulfanyl)piperidin-1-yl]-1,2-dihydroquinoline-3-carbonitrile] | 4.4 nM
Cc1ccc(COC2CCN(c3c(C(N)=O)c(=O)n(C)c4ccccc34)CC2)cc1 [Example 122, 1-methyl-4-{4-[(4-methylphenyl)methoxy]piperidin-1-yl}-2-oxo-1,2-dihydroquinoline-3-carboxamide] | 7.1 nM
Cn1c(=O)c(C#N)c(N2CCC(Oc3ccc(Cl)cc3)CC2)c2ccc(C3COC3)cc21 [Example 72, 4-[4-(4-chlorophenoxy)piperidin-1-yl]-1-methyl-7-(oxetan-3-yl)-2-oxo-1,2-dihydroquinoline-3-carbonitrile] | 16 nM
Cn1c(=O)c(C#N)c(N2CCC(Oc3ccc(OC(F)(F)F)cc3)CC2)c2cccc(Cl)c21 [Example 131, 8-chloro-1-methyl-2-oxo-4-{4-[4-(trifluoromethoxy)phenoxy]piperidin-1-yl}-1,2-dihydroquinoline-3-carbonitrile] | 18 nM
Cc1ccc2c(c1)c(N1CCC(Oc3ccccc3C#N)CC1)c(C#N)c(=O)n2C [Example 155, 4-[4-(2-cyanophenoxy)piperidin-1-yl]-1,6-dimethyl-2-oxo-1,2-dihydroquinoline-3-carbonitrile] | 9.3 nM
Cn1c(=O)c(C#N)c(N2CCC(Oc3ccc(OC(F)(F)F)cc3)CC2)c2cccc(S(C)(=O)=O)c21 [Example 136, 8-(methanesulfonyl)-1-methyl-2-oxo-4-{4-[4-(trifluoromethoxy)phenoxy]piperidin-1-yl}-1,2-dihydroquinoline-3-carbonitrile] | 2.5 nM
Cn1c(=O)c(C#N)c(N2CCCC(Oc3ccc(OC(F)(F)F)cc3)CC2)c2ccccc21 (single isomer, unassigned; enantiomer 1) [Example 101, 1-methyl-2-oxo-4-{4-[4-(trifluoromethoxy)phenoxy]azepan-1-yl}-1,2-dihydroquinoline-3-carbonitrile, enantiomer 1] | 7.4 nM
Cn1c(=O)c(C#N)c(N2CCC(Oc3ccc(OC(F)(F)F)cc3)CC2)c2cc(O)ccc21 [Example 167, 6-hydroxy-1-methyl-2-oxo-4-{4-[4-(trifluoromethoxy)phenoxy]piperidin-1-yl}-1,2-dihydroquinoline-3-carbonitrile] | 0.94 nM
Cn1c(=O)c(C#N)c(N2CCC(OCc3ccccc3)CC2)c2ccccc21 [Example 106, 4-[4-(benzyloxy)piperidin-1-yl]-1-methyl-2-oxo-1,2-dihydroquinoline-3-carbonitrile] | 8.3 nM
COc1ccc2c(N3CCC(Sc4ccccc4)CC3)c(C#N)c(=O)n(C)c2c1 [Example 90, 7-methoxy-1-methyl-2-oxo-4-[4-(phenylsulfanyl)piperidin-1-yl]-1,2-dihydroquinoline-3-carbonitrile] | 1.7 nM
CN1CCN(c2ccc(OC3CCN(c4c(C#N)c(=O)n(C)c5ccccc45)CC3)cc2)C(=O)C1 [Example 24, 1-methyl-4-{4-[4-(4-methyl-2-oxopiperazin-1-yl)phenoxy]piperidin-1-yl}-2-oxo-1,2-dihydroquinoline-3-carbonitrile] | 266 nM
COc1ccccc1OC1CCN(c2c(C#N)c(=O)n(C)c3ccc(C)cc23)CC1 [Example 154, 4-[4-(2-methoxyphenoxy)piperidin-1-yl]-1,6-dimethyl-2-oxo-1,2-dihydroquinoline-3-carbonitrile] | 13 nM
COCCOc1ccc(OC2CCN(c3c(C#N)c(=O)n(C)c4ccccc34)CC2)cc1 [Example 44, 4-{4-[4-(2-methoxyethoxy)phenoxy]piperidin-1-yl}-1-methyl-2-oxo-1,2-dihydroquinoline-3-carbonitrile] | 45 nM
Cn1c(=O)c(C(N)=O)c(N2CCC(Oc3ccc(OC(F)(F)F)cc3)CC2)c2cc(F)ccc21 [Example 165, 6-fluoro-1-methyl-2-oxo-4-{4-[4-(trifluoromethoxy)phenoxy]piperidin-1-yl}-1,2-dihydroquinoline-3-carboxamide] | 0.17 nM
COc1ccc(COC2CCN(c3c(C#N)c(=O)n(C)c4ccccc34)CC2)cc1 [Example 109, 4-{4-[(4-methoxyphenyl)methoxy]piperidin-1-yl}-1-methyl-2-oxo-1,2-dihydroquinoline-3-carbonitrile] | 16 nM
COCCc1ccc2c(N3CCC(Oc4cccc(OC(F)(F)F)c4)CC3)c(C#N)c(=O)n(C)c2c1 [Example 76, 7-(2-methoxyethyl)-1-methyl-2-oxo-4-{4-[3-(trifluoromethoxy)phenoxy]piperidin-1-yl}-1,2-dihydroquinoline-3-carbonitrile] | 6.8 nM
Cn1c(=O)c(C#N)c(N2CCC(Oc3ccc(F)cc3)CC2)c2ccccc21 [Example 6, 4-[4-(4-fluorophenoxy)piperidin-1-yl]-1-methyl-2-oxo-1,2-dihydroquinoline-3-carbonitrile] | 8.4 nM
